Measurements taken from paper PMC9482650, “Quantitative fragmentomics allow affinity mapping of interactomes” (Nature Communications, 2022).
Read-outs that look alike come from different tables or passages of the source. Ends that are not written are not given here.

Legend:
[1] = tested on: HaCat cell extract preys; test: PDZ-AP-MS, biotinylated MBP-PDZ baits; assay type: binding, human; settings: for Difference log2: enrichment of prey
Description: (§1) For PDZ-AP-MS experiments, PDZ domains were cloned as His6-AviTag-MBP-PDZ constructs. For co-expression with BirA, E. coli BL21(DE3) cells were co-transformed with His6-AviTag-MBP, or His6-AviTag-MBP-PDZ-coding and PET21a-BirA (Addgene #20857) plasmids. Simultaneously to IPTG induction, 50 µM biotin was added to the media. After cell harvesting, the lysis buffer was also supplemented with 50 µM biotin. Otherwise, expression and double affinity purification was identical as previously described in details.
(§2) For PBM-AP-MS experiments, 30 μl streptavidin resin was mixed with biotin or peptide at 50–60 μM concentration in 6–6.5 resin volume for 60 min to achieve resin saturation. For PDZ-AP-MS experiments, 30 μl streptavidin resin was mixed with biotinylated MBP or MBP-PDZ at 40-50 μM concentration in >1000× resin volume for 60 min to achieve resin saturation. After saturation, resins were washed a single time (ten resin volume, holdup buffer), and were depleted with biotin (1 mM biotin, 5–10 resin volume, 10 min). Finally, resins were washed two times. 0.5 ml 2 mg/ml cell lysate was added to the dry resin (1 mg total input) and were incubated at 4 °C for 2 h. Then, the beads were washed three times with 10 resin volume buffer containing: 50 mM TRIS pH 8.5, 150 mM NaCl, 1% TritonX-100, 10× complete EDTA-free protease inhibitor cocktail, 2 mM EDTA, 1 mM TCEP. Then, the beads were washed two times with ten resin volume buffer containing: 50 mM TRIS pH 8.5, 150 mM NaCl, 1 mM TCEP. Finally, captured protein was eluted from the resin in two steps and the eluted fractions were pooled. For each elution the beads were incubated for 30 min with three resin volume buffer containing: 20 mM TRIS pH8.5, 100 mM NaCl, 500 μM TCEP, 8 M Urea. Between each step, the beads were separated by mild centrifugation and the supernatant was removed by gentle pipetting.
(§3) The samples were precipitated with TCA 20% overnight at 4 °C and centrifuged at 14,000 rpm for 10 min at 4 °C. The protein pellets were washed twice with 1 mL cold acetone and air dried. The protein extracts were solubilized in urea 8 M, reduced with 5 mM TCEP for 30 min, and alkylated with 10 mM iodoacetamide for 30 min in the dark. Double digestion was performed at 37 °C with 500 ng endoproteinase Lys-C for 4 h, followed by fourfold dilution and an overnight digestion with 500 ng trypsin. Peptide mixtures were then desalted on C18 spin-column and dried on Speed-Vacuum.
(§4) Samples were analyzed using an Ultimate 3000 nano-RSLC (Thermo Scientific, San Jose California) coupled in line with a LTQ-Orbitrap ELITE mass spectrometer via a nano-electrospray ionization source (Thermo Scientific, San Jose California). Peptide mixtures were injected in 0.1% TFA on a C18 Acclaim PepMap100 trap-column (75 µm ID × 2 cm, 3 µm, 100 Å, Thermo Fisher Scientific) for 3 min at 5 µL/min with 2% ACN, 0.1% FA in H2O and then separated on a C18 Accucore nano-column (75 µm ID × 50 cm, 2.6 µm, 150 Å, Thermo Fisher Scientific) at 220 nl/min and 38 °C with a 90 min linear gradient from 5% to 30% buffer B (A: 0.1% FA in H2O/B: 99% ACN, 0.1% FA in H2O), regeneration at 5% B. The mass spectrometer was operated in positive ionization mode, in data-dependent mode with survey scans from m/z 350–1500 acquired in the Orbitrap at a resolution of 120,000 at m/z 400. The 20 most intense peaks from survey scans were selected for further fragmentation in the Linear Ion Trap with an isolation window of 2.0 Da and were fragmented by CID with normalized collision energy of 35%. (TOP20CID method) Unassigned and single charged states were excluded from fragmentation. The Ion Target Value for the survey scans (in the Orbitrap) and the MS2 mode (in the Linear Ion Trap) were set to 1E6 and 5E3 respectively and the maximum injection time was set to 100 ms for both scan modes. Dynamic exclusion was set to 20 s after one repeat count with mass width at ±10 ppm. […]

[2] = biological target: SNX27 PDZ (Homo sapiens, UniProt Q96L92); test: Holdup assay; assay type: binding
[3] = biological target: SCRIB_1 PDZ (Homo sapiens, UniProt Q14160); test: Holdup assay; assay type: binding
[4] = biological target: DLG1_2 PDZ (Homo sapiens, UniProt Q12959); test: Holdup assay; assay type: binding
[5] = biological target: T1, TX1BP3 PDZ (Homo sapiens, UniProt O14907); test: Holdup assay; assay type: binding
T1 sequence (O14907 15-112 limits assumed): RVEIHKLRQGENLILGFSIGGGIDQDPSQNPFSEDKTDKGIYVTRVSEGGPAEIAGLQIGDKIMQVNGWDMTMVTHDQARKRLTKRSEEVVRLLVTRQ

[6] = biological target: T2, SCRIB2 PDZ (Homo sapiens, UniProt Q14160); test: Holdup assay; assay type: binding
T2 sequence (Q14160 862-950 limits assumed): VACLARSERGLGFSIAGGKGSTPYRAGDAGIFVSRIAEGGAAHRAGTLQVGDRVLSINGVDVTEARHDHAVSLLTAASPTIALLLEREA

[7] = biological target: DLG1_1 PDZ (Homo sapiens, UniProt Q12959); test: Holdup assay; assay type: binding
[8] = tested on: Jurkat cell extract preys; test: PDZ-AP-MS, biotinylated MBP-PDZ baits; assay type: binding, human; settings: for Difference log2: enrichment of prey
Description: as §1, §2, §3, §4

[9] = tested on: HEK293T cells; test: Label-free MS proteome of stable cell lines expressing HPV16 E6 or E6ΔPBM; assay type: cell-based, human; settings: protein level
Description: HEK293T and HeLa cells were authenticated and found 100% identity to ATCC cat. CRL-3216 and ATCC cat. CCL-2, respectively. Jurkat and HaCat cell lines were not authenticated (original source: ECACC and Deutsches Krebsforschungszentrum DKFZ, respectively). HeLa cells were grown in DMEM (1 g/L glucose, Gibco) medium completed with 5% FCS and 40 μg/mL gentamicin, diluted every 3rd/4th day 1/10. HaCat cells were grown in DMEM (1 g/L glucose, Gibco) medium completed with 10% FCS and 40 μg/mL gentamicin, diluted every 3rd/4th day 1/4. Jurkat cells were grown in RPMI (Gibco) medium completed with 10% FCS and 40 μg/mL gentamicin, diluted every 3rd/4th day 1/12. All cells were kept at 37 °C and 5% CO2. For proteomics analyses cells were seeded on T-175 flasks. After they reached confluency, adherent cells were washed with PBS once and collected by scraping with ice-cold lysis buffer (Hepes-KOH pH 7.5 50 mM, NaCl 150 mM, Triton X-100 1%, complete EDTA-free protease inhibitor cocktail 1×, EDTA 2 mM, TCEP 5 mM, glycerol 10%). Jurkat cells were collected by 1000 g × centrifugation, washed once with PBS, then collected by 1000 g × 5 min centrifugation again and lysed in ice-cold lysis buffer. Lysates were sonicated 4 × 20 s with 1 s long pulses on ice, then incubated rotating at 4 °C for 30 min. Lysates were centrifuged at 12,000 rpm 4 °C for 20 min and supernatant was kept for further analysis. Concentration determination was carried out by standard Bradford method (Bio-Rad Protein Assay Dye Reagent #5000006) using BSA (MP BIomedicals #160069) as control on a Bio-Rad SmartSpec 3000 spectrophotometer instrument.
as §3
Samples were analyzed using an Ultimate 3000 nano-RSLC (Thermo Scientific, San Jose California) coupled in line with a LTQ-Orbitrap ELITE mass spectrometer via a nano-electrospray ionization source (Thermo Scientific, San Jose California). Peptide mixtures were injected in 0.1% TFA on a C18 Acclaim PepMap100 trap-column (75 µm ID × 2 cm, 3 µm, 100 Å, Thermo Fisher Scientific) for 3 min at 5 µL/min with 2% ACN, 0.1% FA in H2O and then separated on a C18 Accucore nano-column (75 µm ID × 50 cm, 2.6 µm, 150 Å, Thermo Fisher Scientific) at 220 nl/min and 38 °C with a 90 min linear gradient from 5% to 30% buffer B (A: 0.1% FA in H2O/B: 99% ACN, 0.1% FA in H2O), regeneration at 5% B. The mass spectrometer was operated in positive ionization mode, in data-dependent mode with survey scans from m/z 350–1500 acquired in the Orbitrap at a resolution of 120,000 at m/z 400. The 20 most intense peaks from survey scans were selected for further fragmentation in the Linear Ion Trap with an isolation window of 2.0 Da and were fragmented by CID with normalized collision energy of 35%. (TOP20CID method) Unassigned and single charged states were excluded from fragmentation. The Ion Target Value for the survey scans (in the Orbitrap) and the MS2 mode (in the Linear Ion Trap) were set to 1E6 and 5E3 respectively and the maximum injection time was set to 100 ms for both scan modes. Dynamic exclusion was set to 20 s after one repeat count with mass width at ±10 ppm.
Proteins were identified by database searching using SequestHT (Thermo Fisher Scientific) with Proteome Discoverer 2.4 software (PD2.4, Thermo Fisher Scientific) on human FASTA database downloaded from SwissProt (reviewed, release 2020_11_27, 20304 entries, https://www.uniprot.org/). […]

[10] = bait SCRIB_1 PDZ, fold change of prey
[11] = bait SNX27 PDZ, fold change of prey
[12] = PBM motif of the named protein vs SCRIB_1 PDZ, read-out: pKd values – domain-motif, SCRIB_1 (converted)

SCRIB_1 PDZ, sequence (Q14160 728-815 limits assumed): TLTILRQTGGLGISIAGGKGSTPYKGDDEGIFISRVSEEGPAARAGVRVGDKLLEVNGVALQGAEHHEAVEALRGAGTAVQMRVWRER

In the case of TJP1, the “Difference log2” value ([1]; bait DLG1_1 PDZ vs MBP) is reported as 11.6713, the “Ratio DLG1_1/MBP” value ([1]; bait DLG1_1 PDZ, fold change of prey) is reported as 3261.52 and the “Difference log2” value ([1]; bait SCRIB_1 PDZ vs MBP) is reported as 5.351. The “Ratio SCRIB_1/MBP” value [1, 10] was 40.8237, the “Difference log2” value ([1]; bait SNX27 PDZ vs MBP) was 10.4278 and the “Ratio SNX27/MBP” value [1, 11] was 1377.49.
`CC(C)C[C@H](NC(=O)[C@@H]1CCCN1C(=O)[C@@H]1CCCN1C(=O)[C@H](CCCCN)NC(=O)[C@H](CO)NC(=O)[C@H](CC(=O)O)NC(=O)CCCCCNC(=O)CCCC[C@@H]1SC[C@@H]2NC(=O)N[C@@H]21)C(=O)N1CCC[C@H]1C(=O)N1CCC[C@H]1C(=O)N[C@@H](CC(=O)O)C(=O)N[C@@H](CCC(=O)O)C(=O)N[C@@H](Cc1c[nH]c2ccccc12)C(=O)N[C@H](C(=O)O)C(C)C` [MERS E] was tested, and the Kd [2] was 27.5 µM.
VLRLQSETSV [VANGL1] was tested, and the Kd [3, 12] was 2.95 µM, the Kd [2] was 2 µM and the Kd ([4]; PBM motif of the named protein vs DLG1_2 PDZ, read-out: pKd values – domain-motif, DLG1_2 (converted)) was 13.8 µM. For the same compound, the Kd ([5]; PBM motif of the named protein vs TX1BP3 PDZ, read-out: pKd values – domain-motif, TX1BP3 (converted)) was 61.7 µM, the Kd ([6]; PBM motif of the named protein vs SCRIB_2 PDZ, read-out: pKd values – domain-motif, SCRIB_2 (converted)) was 19.1 µM and the Kd ([7]; PBM motif of the named protein vs DLG1_1 PDZ, read-out: pKd values – domain-motif, DLG1_1 (converted)) was 35.5 µM.
With PKMKLNETSF [SHKBP1] the Kd [3, 12] was 49 µM and the Kd [2] was 2.88 µM.
Work on HSATSVHTSV [MTMR1] yielded a Kd ([3]; holdup affinity of the PBM peptide of the named protein, sheet PBMcomplexome, lower sub-table, 3.5 appears to be the floor for no detectable binding, read-out: affinity of PBM to SCRIB_1 (pKd) (converted)) of 162 µM, a Kd ([2]; holdup affinity of the PBM peptide of the named protein, sheet PBMcomplexome, lower sub-table) of 110 µM and a Kd ([4]; holdup affinity of the PBM peptide of the named protein, sheet PBMcomplexome, lower sub-table, 3.5 appears to be the floor for no detectable binding, read-out: affinity of PBM to DLG1_2 (pKd) (converted)) of 12.6 µM. For the same compound, the Kd ([5]; holdup affinity of the PBM peptide of the named protein, sheet PBMcomplexome, lower sub-table, 3.5 appears to be the floor for no detectable binding, read-out: affinity of PBM to TX1BP3 (pKd) (converted)) was 158 µM, the Kd ([6]; holdup affinity of the PBM peptide of the named protein, sheet PBMcomplexome, lower sub-table, 3.5 appears to be the floor for no detectable binding, read-out: affinity of PBM to SCRIB_2 (pKd) (converted)) was 112 µM and the Kd ([7]; holdup affinity of the PBM peptide of the named protein, sheet PBMcomplexome, lower sub-table, 3.5 appears to be the floor for no detectable binding, read-out: affinity of PBM to DLG1_1 (pKd) (converted)) was 55 µM.
With VIM the “Difference log2” value ([8]; bait SCRIB_1 PDZ vs MBP) was 7.128, the “Ratio SCRIB_1/MBP” value [8, 10] was 139.918 and the “Difference log2” value ([8]; bait SNX27 PDZ vs MBP) was 6.235. The “Ratio SNX27/MBP” value [8, 11] was 75.3373, the “Difference log2” value ([8]; bait TX1BP3 PDZ vs MBP) was 7.255 and the “Ratio TX1BP3/MBP” value ([8]; bait TX1BP3 PDZ, fold change of prey) was 152.718.
In the case of ESYT2, the “Difference log2 E6/Ctrl” value ([9]; E6 cell line vs control) is reported as -0.8847, the “Ratio E6/Ctrl” value ([9]; E6 cell line vs control) is reported as 0.5416 and the “Difference log2 dPBM/E6” value ([9]; dPBM cell line vs E6 cell line) is reported as -0.2136. For the same compound, the “Ratio dPBM/E6” value ([9]; dPBM cell line vs E6 cell line) was 0.8624, the “Difference log2 dPBM/Ctrl” value ([9]; dPBM cell line vs control) was -1.098 and the “Ratio dPBM/Ctrl” value ([9]; dPBM cell line vs control) was 0.4671.
